Experimental data published in PubChem BioAssay (NCI).
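Results reflect a 48-hour exposure of cells in 96-well plates to compound at five concentrations. Definition used: TGI = concentration required for complete inhibition of growth.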

Assays:
Experiment in all cases: NCI-60 cell line screen, 48 h
M14 melanoma = tested on: M14 melanoma
MDA-MB-435 = tested on: MDA-MB-435
COLO 205 colon = tested on: COLO 205 colon
SN12C renal = tested on: SN12C renal
NCI/ADR-RES ovarian = tested on: NCI/ADR-RES ovarian
HT29 colon = tested on: HT29 colon
SNB-19 CNS = tested on: SNB-19 CNS
UACC-62 melanoma = tested on: UACC-62 melanoma
OVCAR-5 ovarian = tested on: OVCAR-5 ovarian
KM12 colon = tested on: KM12 colon
SR leukemia = tested on: SR leukemia
NCI-H23 lung = tested on: NCI-H23 lung
MDA-MB-231 breast = tested on: MDA-MB-231 breast
786-0 renal = tested on: 786-0 renal
HCC-2998 colon = tested on: HCC-2998 colon
NCI-H226 lung = tested on: NCI-H226 lung
MDA-N = tested on: MDA-N
SK-MEL-28 melanoma = tested on: SK-MEL-28 melanoma
LOX IMVI melanoma = tested on: LOX IMVI melanoma
DU-145 prostate = tested on: DU-145 prostate
NCI-H460 lung = tested on: NCI-H460 lung
ACHN renal = tested on: ACHN renal
TK-10 renal = tested on: TK-10 renal
HCT-15 colon = tested on: HCT-15 colon
OVCAR-4 ovarian = tested on: OVCAR-4 ovarian
NCI-H522 lung = tested on: NCI-H522 lung
K-562 leukemia = tested on: K-562 leukemia
MCF7 breast = tested on: MCF7 breast
EKVX NSCLC = tested on: EKVX NSCLC
HOP-92 NSCLC = tested on: HOP-92 NSCLC
OVCAR-8 ovarian = tested on: OVCAR-8 ovarian
MALME-3M melanoma = tested on: MALME-3M melanoma
UO-31 renal = tested on: UO-31 renal
HS 578T breast = tested on: HS 578T breast
BT-549 breast = tested on: BT-549 breast
T-47D breast = tested on: T-47D breast
PC-3 prostate = tested on: PC-3 prostate
SF-268 CNS = tested on: SF-268 CNS
MOLT-4 leukemia = tested on: MOLT-4 leukemia
UACC-257 melanoma = tested on: UACC-257 melanoma
CCRF-CEM leukemia = tested on: CCRF-CEM leukemia
SW-620 colon = tested on: SW-620 colon
RPMI-8226 leukemia = tested on: RPMI-8226 leukemia
CAKI-1 renal = tested on: CAKI-1 renal
U251 CNS = tested on: U251 CNS
SK-MEL-2 melanoma = tested on: SK-MEL-2 melanoma
OVCAR-3 ovarian = tested on: OVCAR-3 ovarian
SF-295 CNS = tested on: SF-295 CNS
IGROV1 ovarian = tested on: IGROV1 ovarian
SK-OV-3 ovarian = tested on: SK-OV-3 ovarian
HCT-116 colon = tested on: HCT-116 colon
A498 renal = tested on: A498 renal
HOP-62 NSCLC = tested on: HOP-62 NSCLC
RXF 393 renal = tested on: RXF 393 renal
SF-539 CNS = tested on: SF-539 CNS
HL-60(TB) leukemia = tested on: HL-60(TB) leukemia
SK-MEL-5 melanoma = tested on: SK-MEL-5 melanoma
A549 NSCLC = tested on: A549 NSCLC
SNB-75 CNS = tested on: SNB-75 CNS

`NNC(=O)CCc1ccc2ccc3ccccc3c2c1` showed a TGI (M14 melanoma) greater than 100 µM, a TGI (MDA-MB-435) greater than 100 µM and a TGI (COLO 205 colon) greater than 100 µM. It also gave a TGI (SN12C renal) greater than 100 µM, a TGI (NCI/ADR-RES ovarian) greater than 100 µM and a TGI (HT29 colon) greater than 100 µM. For the same compound, the TGI (SNB-19 CNS) was greater than 100 µM, the TGI (UACC-62 melanoma) was greater than 100 µM and the TGI (OVCAR-5 ovarian) was greater than 100 µM. The TGI (KM12 colon) was greater than 100 µM, the TGI (SR leukemia) was greater than 100 µM and the TGI (NCI-H23 lung) was greater than 100 µM. It also gave a TGI (MDA-MB-231 breast) greater than 100 µM, a TGI (786-0 renal) greater than 100 µM and a TGI (HCC-2998 colon) greater than 100 µM. For the same compound, the TGI (NCI-H226 lung) was greater than 100 µM, the TGI (MDA-N) was greater than 100 µM and the TGI (SK-MEL-28 melanoma) was greater than 100 µM. The TGI (LOX IMVI melanoma) was greater than 100 µM, the TGI (DU-145 prostate) was greater than 100 µM and the TGI (NCI-H460 lung) was greater than 100 µM. For the same compound, the TGI (ACHN renal) was greater than 100 µM, the TGI (TK-10 renal) was greater than 100 µM and the TGI (HCT-15 colon) was greater than 100 µM. It also gave a TGI (OVCAR-4 ovarian) greater than 100 µM, a TGI (NCI-H522 lung) greater than 100 µM and a TGI (K-562 leukemia) greater than 100 µM. The TGI (MCF7 breast) was greater than 100 µM, the TGI (EKVX NSCLC) was 97.9 µM and the TGI (HOP-92 NSCLC) was greater than 100 µM. The TGI (OVCAR-8 ovarian) was greater than 100 µM, the TGI (MALME-3M melanoma) was greater than 100 µM and the TGI (UO-31 renal) was greater than 100 µM. For the same compound, the TGI (HS 578T breast) was greater than 100 µM, the TGI (BT-549 breast) was greater than 100 µM and the TGI (T-47D breast) was greater than 100 µM. The TGI (PC-3 prostate) was greater than 100 µM, the TGI (SF-268 CNS) was greater than 100 µM and the TGI (MOLT-4 leukemia) was greater than 100 µM. It also gave a TGI (UACC-257 melanoma) greater than 100 µM, a TGI (CCRF-CEM leukemia) greater than 100 µM and a TGI (SW-620 colon) greater than 100 µM. For the same compound, the TGI (RPMI-8226 leukemia) was greater than 100 µM, the TGI (CAKI-1 renal) was greater than 100 µM and the TGI (U251 CNS) was greater than 100 µM. It also gave a TGI (SK-MEL-2 melanoma) greater than 100 µM, a TGI (OVCAR-3 ovarian) greater than 100 µM and a TGI (SF-295 CNS) greater than 100 µM. For the same compound, the TGI (IGROV1 ovarian) was greater than 100 µM, the TGI (SK-OV-3 ovarian) was greater than 100 µM and the TGI (HCT-116 colon) was greater than 100 µM. For the same compound, the TGI (A498 renal) was greater than 100 µM, the TGI (HOP-62 NSCLC) was greater than 100 µM and the TGI (RXF 393 renal) was greater than 100 µM. The TGI (SF-539 CNS) was greater than 100 µM, the TGI (HL-60(TB) leukemia) was greater than 100 µM and the TGI (SK-MEL-5 melanoma) was greater than 100 µM.
`Cc1cc(S(=O)(=O)NC2=NCCCN2)c(S)cc1Cl` showed a TGI (M14 melanoma) of 86.1 µM, a TGI (MDA-MB-435) of 54.7 µM and a TGI (COLO 205 colon) greater than 100 µM. It also gave a TGI (SN12C renal) greater than 100 µM, a TGI (NCI/ADR-RES ovarian) greater than 100 µM and a TGI (HT29 colon) of 49.6 µM. For the same compound, the TGI (SNB-19 CNS) was greater than 100 µM, the TGI (UACC-62 melanoma) was 90.3 µM and the TGI (OVCAR-5 ovarian) was greater than 100 µM. For the same compound, the TGI (KM12 colon) was greater than 100 µM, the TGI (SR leukemia) was 56.1 µM and the TGI (MDA-MB-231 breast) was greater than 100 µM. It also gave a TGI (786-0 renal) of 56.4 µM, a TGI (HCC-2998 colon) greater than 100 µM and a TGI (NCI-H226 lung) of 88.2 µM. For the same compound, the TGI (MDA-N) was greater than 100 µM, the TGI (SK-MEL-28 melanoma) was greater than 100 µM and the TGI (LOX IMVI melanoma) was 42.6 µM. The TGI (DU-145 prostate) was greater than 100 µM, the TGI (NCI-H460 lung) was greater than 100 µM and the TGI (ACHN renal) was greater than 100 µM. For the same compound, the TGI (TK-10 renal) was 74.7 µM, the TGI (HCT-15 colon) was greater than 100 µM and the TGI (OVCAR-4 ovarian) was greater than 100 µM. It also gave a TGI (NCI-H522 lung) of 62.8 µM, a TGI (K-562 leukemia) of 75.9 µM and a TGI (EKVX NSCLC) greater than 100 µM. For the same compound, the TGI (OVCAR-8 ovarian) was 67.6 µM, the TGI (MALME-3M melanoma) was 72.4 µM and the TGI (A549 NSCLC) was 53.9 µM. For the same compound, the TGI (UO-31 renal) was greater than 100 µM, the TGI (HS 578T breast) was 86.7 µM and the TGI (BT-549 breast) was 36.4 µM. For the same compound, the TGI (T-47D breast) was greater than 100 µM, the TGI (PC-3 prostate) was greater than 100 µM and the TGI (SF-268 CNS) was greater than 100 µM. For the same compound, the TGI (UACC-257 melanoma) was greater than 100 µM, the TGI (SW-620 colon) was 37.8 µM and the TGI (SNB-75 CNS) was greater than 100 µM. The TGI (CAKI-1 renal) was greater than 100 µM, the TGI (U251 CNS) was greater than 100 µM and the TGI (SK-MEL-2 melanoma) was 77.7 µM. The TGI (OVCAR-3 ovarian) was greater than 100 µM, the TGI (IGROV1 ovarian) was greater than 100 µM and the TGI (SK-OV-3 ovarian) was greater than 100 µM. For the same compound, the TGI (HCT-116 colon) was 94.1 µM, the TGI (A498 renal) was greater than 100 µM and the TGI (HOP-62 NSCLC) was greater than 100 µM. The TGI (RXF 393 renal) was greater than 100 µM, the TGI (SF-539 CNS) was greater than 100 µM and the TGI (HL-60(TB) leukemia) was 45.9 µM. The TGI (SK-MEL-5 melanoma) was 32.4 µM.
`C[C@H](CCC(=O)NCCS(=O)(=O)O)[C@H]1CC[C@H]2[C@@H]3[C@H](O)C[C@@H]4C[C@H](O)CC[C@]4(C)[C@H]3CC[C@]12C` gave a TGI (M14 melanoma) greater than 100 µM, a TGI (MDA-MB-435) greater than 100 µM and a TGI (COLO 205 colon) greater than 100 µM. The TGI (SN12C renal) was greater than 100 µM, the TGI (NCI/ADR-RES ovarian) was greater than 100 µM and the TGI (HT29 colon) was greater than 100 µM. It also gave a TGI (SNB-19 CNS) greater than 100 µM, a TGI (UACC-62 melanoma) greater than 100 µM and a TGI (OVCAR-5 ovarian) greater than 100 µM. The TGI (KM12 colon) was greater than 100 µM, the TGI (SR leukemia) was greater than 100 µM and the TGI (NCI-H23 lung) was greater than 100 µM. It also gave a TGI (MDA-MB-231 breast) greater than 100 µM, a TGI (786-0 renal) greater than 100 µM and a TGI (HCC-2998 colon) greater than 100 µM. It also gave a TGI (NCI-H226 lung) greater than 100 µM, a TGI (MDA-N) greater than 100 µM and a TGI (SK-MEL-28 melanoma) greater than 100 µM. It also gave a TGI (LOX IMVI melanoma) greater than 100 µM, a TGI (DU-145 prostate) greater than 100 µM and a TGI (NCI-H460 lung) greater than 100 µM. It also gave a TGI (ACHN renal) greater than 100 µM, a TGI (TK-10 renal) greater than 100 µM and a TGI (HCT-15 colon) greater than 100 µM. For the same compound, the TGI (OVCAR-4 ovarian) was greater than 100 µM, the TGI (NCI-H522 lung) was greater than 100 µM and the TGI (K-562 leukemia) was greater than 100 µM. The TGI (MCF7 breast) was greater than 100 µM, the TGI (EKVX NSCLC) was greater than 100 µM and the TGI (HOP-92 NSCLC) was greater than 100 µM. For the same compound, the TGI (OVCAR-8 ovarian) was greater than 100 µM, the TGI (MALME-3M melanoma) was greater than 100 µM and the TGI (A549 NSCLC) was greater than 100 µM. For the same compound, the TGI (UO-31 renal) was greater than 100 µM, the TGI (HS 578T breast) was greater than 100 µM and the TGI (BT-549 breast) was greater than 100 µM. The TGI (T-47D breast) was greater than 100 µM, the TGI (PC-3 prostate) was greater than 100 µM and the TGI (SF-268 CNS) was greater than 100 µM. It also gave a TGI (MOLT-4 leukemia) greater than 100 µM, a TGI (UACC-257 melanoma) greater than 100 µM and a TGI (CCRF-CEM leukemia) greater than 100 µM. It also gave a TGI (SW-620 colon) greater than 100 µM, a TGI (RPMI-8226 leukemia) greater than 100 µM and a TGI (CAKI-1 renal) greater than 100 µM. It also gave a TGI (U251 CNS) greater than 100 µM, a TGI (SK-MEL-2 melanoma) greater than 100 µM and a TGI (OVCAR-3 ovarian) greater than 100 µM. For the same compound, the TGI (SF-295 CNS) was greater than 100 µM, the TGI (IGROV1 ovarian) was greater than 100 µM and the TGI (SK-OV-3 ovarian) was greater than 100 µM. For the same compound, the TGI (HCT-116 colon) was greater than 100 µM, the TGI (A498 renal) was greater than 100 µM and the TGI (HOP-62 NSCLC) was greater than 100 µM. It also gave a TGI (RXF 393 renal) greater than 100 µM, a TGI (SF-539 CNS) greater than 100 µM and a TGI (HL-60(TB) leukemia) greater than 100 µM. The TGI (SK-MEL-5 melanoma) was greater than 100 µM.
